Source: EP3641564B1, “TASTE MODULATING FLAVORING SUBSTANCES” (Symrise AG, priority 2017, dated 2018)

Experiments:
[1] = Sensory panel rating of bitterness reduction of a caffeine solution; assay type: in vivo; settings: for Bitterness rating with test substance (0-100 scale): expert panel mean, rating 0 [nicht bitter] to 100 [extrem bitter]; for % Reduktion des Bitter-Eindrucks (Signifikanz): 500 ppm Coffein, calculated from panel means versus solution without test substance
Source text: (§1) Um die Reduzierung (d.h. die Maskierung oder Verminderung) des Bitter-Eindrucks in einer Probe zu quantifizieren, wurde die Bitterkeit einer Lösung enthaltend 500 ppm Coffein oder 300 ppm Theobromin oder 100 ppm Naringin von einer Expertengruppe jeweils mit einer Probe verglichen, die 500 ppm Coffein oder 300 ppm Theobromin oder 100 ppm Naringin und zusätzlich die jeweils angegebene Menge einer (hinsichtlich der Fähigkeit zur Bitter-Reduzierung) zu beurteilenden Substanz enthielt (Einstufung: 0 [nicht bitter] bis 100 [extrem bitter]). Für die Auswertung, d.h. die Berechnung der Reduktion (in %) des Bittereindrucks wurden jeweils die Durchschnittswerte der Einschätzungen der Expertengruppe verwendet. Die Ergebnisse sind in Tabelle 1 zusammengefasst: Tabelle 1: Bitterreduzierung einer Bitterstofflösung

[2] = Sensory panel rating of bitterness reduction of a theobromine solution; assay type: in vivo
Source text: as §1

[3] = 10 ppm test substance in 500 ppm Coffein solution

Row | Structure (SMILES) | Bitterness rating with test substance (0-100 scale) [1, 3] | % Reduktion des Bitter-Eindrucks (Signifikanz) ([1]; 10 ppm test substance) | Bitterness rating with test substance (0-100 scale) ([1]; 25 ppm test substance in 500 ppm Coffein solution) | % Reduktion des Bitter-Eindrucks (Signifikanz) ([1]; 25 ppm test substance) | Bitter-Eindruck (0-100) mit Testsubstanz ([2]; 25 ppm test substance in 300 ppm Theobromin solution, expert panel mean, rating 0 [nicht bitter] to 100 [extrem bitter]) | % Reduktion des Bitter-Eindrucks (Signifikanz) ([2]; 25 ppm test substance, 300 ppm Theobromin, calculated from panel means versus solution without test substance)
1 | COc1ccc(/C=C/c2cccc(O)c2C(=O)O)cc1O [Substanz (6), 2-Hydroxy-6-[(E)-2-(3-hydroxy-4-methoxyphenyl)vinyl]benzoesäure] | 37.50 ± 18.84 | 18.3 % (p = 0.15) |  |  |  | 
2 | COc1ccc(C(O)Cc2cccc(O)c2C(=O)O)cc1O (single isomer, unassigned) [Substanz (3), 2-Hydroxy-6-[2-hydroxy-2-(3-hydroxy-4-methoxyphenyl)ethyl]benzoesäure] | 41.25 + 21.83 | 14.0 % (p = 0.29) | 38.85 + 19.19 | 26.5 % (p < 0.05) | 39.76 ± 20.91 | 16.5 % (p = 0.21)
